In patent US20070134319A1, “Pharmaceutical formulations of bisphosphonates” (priority 2003, published 2007):

Text: The solubility of zoledronic acid in [sequence] 44/14 and [sequence]

O=P(O)(O)C(O)(Cn1ccnc1)P(=O)(O)O [zoledronic acid, 1-hydroxy-2-(imidazol-1-yl)ethane-1,1-diphosphonic acid]
Zoledronic acid solubility in all the excipients (liquid lipidic media) (assessed visually): < 0.2 mg/g of excipient
Solubility of zoledronic acid in VITAMIN E-TPGS (at 40° C.): less than 0.22 mg/g
Solubility of zoledronic acid in GELUCIRE 50/13 (at 60° C.): less than 1 mg/g
Solubility in pH 4.5 acetate buffer (pH 4.5): readily soluble
Precipitation upon addition of flush (pH 4.5 acetate buffer solution, tap water (final pH 3.8) or citric acid (final pH~2.2) flush): does not precipitate out
